Assay results as given in US20080070987A1, “META-XYLYLENEDIAMINE VANADATE SALTS” (priority 2006, published 2008).
“Also recorded” adds a separate entry of the source.

Key:
[1] = tested on: protein kinase B / insulin receptor phosphorylation; experiment: Intracellular insulin signalling in isolated rat adipocytes (protein kinase B and insulin receptor phosphorylation); type: cell-based, Wistar rats
Procedure: Isolated fat cells were disrupted for total membrane preparation by hypo-osmotic lysis in a 20 mM HES buffer and an antiprotease and antiphosphatase cocktail as reported by Abella et al. (2003, Diabetes 52: 1004-1013). Protein concentrations were determined by the Bradford method (Bradford, 1976, Anal. Biochem. 72: 248-254) with gamma-globulin as protein concentration standard. Immunoprecipitation and immunoblot assays were performed as previously described by Abella et al. (2004, Diabetologia 47: 429-438) with the use of a monoclonal antiphosphotyrosine antibody for the immunoprecipitation and an anti-insulin receptor antibody for immunobloting, respectively. SDS-polyacrylamide gel electrophoresis was performed on membrane proteins following conventional procedures. Proteins were transferred to Immobilon and immunoblotting was performed as reported by Castello et al. (1994, J. Biol. Chem. 269: 5905-5912).
The mechanism of action of B6V10 was investigated in isolated rat adipocytes. Adipose cells from Wistar rats were incubated for different times in the presence of 25 μM hexaquis(benzylammonium) decavanadate (B6V10). Cells were also incubated in the presence of insulin (100 nM, 45 min), decavanadate (25 μM, 45 min) or semicarbazide (1 mM, 45 min). Subsequently, 2-deoxyglucose uptake (results shown in FIG. 7A), tyrosine phosphorylation of insulin receptor (FIG. 7B), phospho-Thr^308-protein kinase B (FIG. 7C) and phospho-Ser^473-protein kinase B (FIG. 7D) was measured. […] The phosphorylation of protein kinase B induced by B6V10 was parallel to activation of glucose transport (FIGS. 7C and 7D).
The effects of incubation with semicarbazide or phosphatidylinositol 3-kinase inhibitors were also investigated. Adipose cells were incubated with B6V10 (25 μM, 45 min) in the absence or presence of wortmannin (2 μM, 45 min), LY294002 (10 μM, 45 min) or semicarbazide (1 mM, 45 min) and thereafter 2-deoxyglucose uptake was determined during 5 min.

isolated rat adipocytes = experiment: Glucose (2-deoxyglucose) transport in isolated rat adipocytes; type: cell-based, Wistar rats; conditions: for effect of semicarbazide on the stimulation of glucose transport: 1 mM semicarbazide; for stimulation of glucose transport (2-DG uptake), in words: 45 min incubation; for stimulation of glucose transport compared with the combination of benzylamine and vanadate: combination 100 μM benzylamine and 100 μM vanadate
Procedure: FIG. 1 is a graphical illustration of the hexaquis(benzylammonium) decavanadate effects on glucose transport in isolated rat adipocytes. In this Figure, V corresponds to the rate of 2-deoxyglucose transport (expressed relative to the basal rate), and the results are mean +standard error of the mean (SEM). The adipocytes were incubated in the absence of stimulants in the following conditions: basal (1); in the presence of 100 nM insulin (2); in the presence of hexaquis(benzylammonium) decavanadate at concentrations of 0.5 μM (3), 1 μM (4), 2.5 μM (5), 5 μM (6), 10 μM (7), 25 μM (8), 50 μM (9), and 100 μM (10). The cells were also incubated in the presence of the semicarbazide inhibitor (1 mM), and 10 μM hexaquis(benzylammonium) decavanadate (11), 25 μM of hexaquis(benzylammonium) decavanadate (12) or 50 μM hexaquis(benzylammonium) decavanadate (13). In parallel, the cells were incubated in presence of 100 μM of sodium vanadate and 100 μM of benzylamine, in the absence (14) or in the presence of 1 mM of semicarbazide (15).
FIG. 2 is a graphical illustration of the effects of hexaquis(benzylammonium) decavanadate, pentaquis(benzylammonium) decavanadate and tetraquis(benzylammonium) decavanadate on glucose transport in isolated rat adipocytes. V corresponds to the rate of 2-deoxyglucose uptake (expressed as relation with basal group), and the results are mean +standard error mean. The adipocytes were incubated in the absence of stimulants in the following conditions: basal (1); in the presence of 100 nM of insulin (2); in the presence of hexaquis(benzylammonium) decavanadate at concentrations of 10 μM (3) and 25 μM (4), pentaquis(benzylammonium) decavanadate at concentrations of 10 μM (8) and 25 μM (9), and tetraquis(benzylammonium) decavanadate at concentrations of 10 μM (11) and 25 μM (12). The cells were also incubated in the presence of the semicarbazide inhibitor (1 mM) and, 25 μM of hexaquis(benzylammonium) decavanadate (5), 25 μM of pentaquis(benzylammonium) decavanadate (10) or 25 μM of tetraquis(benzylammonium) decavanadate (13). In parallel, the cells were incubated in the presence of 100 μM of sodium vanadate (6) or in the presence of 250 μM of sodium vanadate (7).
Adipose cells from Wistar rats were incubated for 45 minutes in basal conditions (Basal) or in the presence of 100 nM insulin (Ins) and different concentrations of. hexaquis(benzylammonium) decavanadate (B6V10) in the absence or in the presence of 1 mM semicarbazide (SCZ). Subsequently, 2-DG transport was measured over a 5 min. interval.
The effects of the three tested compounds (B6V10, B5V10 and B4V10) were compared. Adipose cells from Wistar rats were incubated for 45 minutes in basal conditions (Basal) or in the presence of 100 nM insulin (Ins), and different concentrations of decavanadate (V10), hexaquis(benzylammonium) decavanadate (B6V10), pentaquis(benzylammonium) decavanadate (B5V10) or tetraquis(benzylammonium) decavanadate (B4V10) in the absence or in the presence of 1 mM semicarbazide (SCZ). 2-DG transport was measured over 5 min. intervals.
In additional experiments, compounds shown in FIG. 6A, 2-(4-fluoro-phenyl)ethylamine (compound A), 3-phenylpropylamine (compound B), 4-fluoro-benzylamine (compound C) and 4-phenylbutylamine (compound D) were assessed using the experimental methods set forth above for the capacity to stimulate 2-DG uptake in isolated rat adipocytes. Adipose cells from Wistar rats were incubated for 45 minutes in basal conditions (Basal) or in the presence of 100 nM insulin (Ins), and different concentrations of vanadium salts of 2-(4-fluoro-phenyl)-ethylamine (compound A), 3-phenyl-propylamine (compound B), 4-fluoro-benzylamine (compound C) and 4-phenyl-butylamine (compound D). 2-DG transport was measured over 5 min.
The effects of incubation with semicarbazide or phosphatidylinositol 3-kinase inhibitors were also investigated. […]

[2] = listed as hexaquis(benzylammonium) decavanadate

Row | EC50 (isolated rat adipocytes; FIG. 1, read-out: concentration of semimaximal effect on glucose transport) | Substance | effect of semicarbazide on protein kinase B phosphorylation induced by the compound ([1]; 1 mM semicarbazide, 45 min) | earliest time at which protein kinase B phosphorylation was detectable ([1]; isolated rat adipocytes, 25 μM) | phosphorylation (activation) of protein kinase B, in words ([1]; isolated rat adipocytes, 25 μM) | tyrosine phosphorylation of insulin receptors ([1]; isolated rat adipocytes, 25 μM) | effect of semicarbazide on the stimulation of glucose transport (isolated rat adipocytes) | effect of semicarbazide on the stimulation of glucose transport (isolated rat adipocytes; [2]) | stimulation of glucose transport (2-DG uptake), in words (isolated rat adipocytes) | stimulation of glucose transport (2-DG uptake), in words (isolated rat adipocytes; [2]) | concentration from which stimulation of glucose transport is perceptible (isolated rat adipocytes; FIG. 1) | concentration of maximal effect on glucose transport (isolated rat adipocytes; FIG. 1) | stimulation of glucose transport compared with the combination of benzylamine and vanadate (isolated rat adipocytes) | stimulation of glucose transport compared with the combination of benzylamine and vanadate (isolated rat adipocytes; [2]) | maximal effect on glucose transport as % of the maximal stimulation caused by insulin (isolated rat adipocytes; insulin 100 nM) | stimulation of glucose transport, in words (isolated rat adipocytes; concentrations ranging from 5 to 50 μM)
1 | > 1000 nM | hexaquis(benzylammonium) decavanadate [Example B6V10] | blocked by semicarbazide | 2.5 min | rapidly stimulated protein kinase B | undetectable | completely blocked by semicarbazide; also recorded: blocked in the presence of semicarbazide | completely blocked by semicarbazide | concentration-dependent manner | pronounced stimulation on glucose transport | 0.5 µM | 2.5 µM | greater stimulation | greater than that produced by the presence of benzylamine and vanadate in combination | 85% | 
2 |  | sodium decavanadate [Example V10, reference compound] |  |  | not observed |  |  |  |  |  |  |  |  |  |  | did not stimulate glucose transport
